“Also recorded” adds a separate entry of the source.
What was measured:
[1] = system: Abca4^−/−Rdh8^−/− mice; assay: Light-induced retinal degeneration in Abca4-/-Rdh8-/- mice (OCT, ERG, histology), Example 1; type: in vivo, mouse; conditions: 0.875 μmol per mouse oral gavage 16 h before 10,000 lux 1 h, OCT after 3 days in dark
Experimental: Abca4^−/−Rdh8^−/− double knockout mice were housed in the animal facility at the School of Medicine, Case Western Reserve University, where they were maintained under either complete darkness or a 12-h light (−10 1×) and 12-h dark cycle. All retinylamine tested were dissolved or suspended in 100 μl of vegetable oil with less than 10% (v/v) DMSO and were administered by oral gavage with a 22-gauge feeding needle. Experimental manipulations in the dark were done under dim red light transmitted through a Kodak No. 1 safelight filter (transmittance >560 nm). All animal procedures and experiments were approved by the Case Western Reserve University Animal Care Committees and conformed to recommendations of the American Veterinary Medical Association Panel on Euthanasia and the Association of Research for Vision and Ophthalmology.
After dark adaptation for 48 h, one or two Abca4^−/−Rdh8^−/− mice with pupils dilated by 1% tropicamide were exposed to fluorescent light (10,000 1×; 150-W spiral lamp, Commercial Electric) for 60 min in a white plastic bucket (Papersmith) with food and water and then kept in the dark. Histological and biochemical experiments were performed 3 days after exposure.
Ultra-high resolution spectral-domain OCT (SD-OCT; Bioptigen) and Heidelberg Retinal Angiograph II SLO (Heidelberg Engineering) were used for in vivo imaging of mouse retinas. Mice were anesthetized by intraperitoneal injection of a cocktail (20 μl g-1 body weight) containing ketamine (6 mg ml-1) and xylazine (0.44 mg ml-1) in 10 mM sodium phosphate, pH 7.2, and 100 mM NaCl. Pupils were dilated with 1% tropicamide. Four pictures acquired in the B-scan mode were used to construct each final averaged SD-OCT image.
All ERG procedures were performed by published methods. For single-flash recording, the duration of white-light flash stimuli (from 20 μs to 1 ms) was adjusted to provide a range of illumination intensities (from −3.7 to 1.6 log cd s m-2). Three to five recordings were made at sufficient intervals between flash stimuli (from 3 s to 1 min) to allow recovery from any photobleaching effects.
Mouse eyes were fixed for 24 h by rocking in a fixation solution (2 ml/eye) containing 4% paraformaldehyde and 1% glutaraldehyde in PBS. The tissue was processed through a series of ethanols, xylenes, and paraffins in a Tissue-Tek VIP automatic processor (Sakura, Torrance, Calif., USA), and 5-μm sections were cut using a Microm HM355 paraffin microtome (Thermo Fisher Scientific, Waltham, Mass., USA) and stained with hematoxylin and eosin (H&E) stain. Images of stained sections were captured by a Leica CTR6000 microscope attached to a CCD camera (Micropublisher 5.0 RTV, Qimaging Surray BC, Canada).
The effectiveness of the retinylamine derivatives on preventing light-induced retinal degeneration was tested in four-week old Abca4^−/−Rdh8^−/− mice according to the experimental scheme depicted in FIG. 1. After the mice were dark-adapted for 48 h, the drugs were gavaged at a dose 0.875 μmol/per mouse, which was selected based on the half protection dose for retinylamine after a dosing experiment, FIG. 2. Retinylamine was tested as a control at the same dose. […] Retinal integrity was assessed using optical coherence tomography (OCT). […] The mice without any treatment had photoreceptor cells completely destroyed after light illumination, and were used as a negative control. The retinal integrity was determined based on the thickness of outer nuclear layer (ONL) of the retinas measured from the OCT images. Reduced ONL thickness signifies the decreasing number of photoreceptors and retinal degeneration.

[2] = Biodistribution of N-retinylamides and retinylamine derivatives in liver and eye after oral gavage; type: in vivo, mouse; conditions: for original drug detected in the eye: 2 h and 16 h; for metabolism in the eye: conclusion from biodistribution at 2 h and 16 h
Experimental: Female C57BL mice (4-week-old) were randomly divided into seven groups, six treated groups and one control group. Free Ret-NH2 (3.5 μmol per mouse, dissolved in DMSO and dispersed in vegetable oil) or retinylamine derivatives (Ret-Gly, Ret-L-Val-Gly, Ret-L-Phe, Ret-L-Leu, Ret-L-Val, 3.5 μmol per mouse, dissolved in DMSO and dispersed in vegetable oil) was administered by gastric gavage, control group was only gavaged vegetable oil. Then at each predetermined time point (2 and 16 h after drug administration), 3 mice were sacrificed. The liver and eye balls were collected to determine tissue N-retinylamide content for pharmacokinetic analysis. A portion of the liver tissue (0.3-0.5 g) was weighed, homogenized in 2 mL 1:1 ethanol:PBS solution and the eye balls were similarly processed (eye balls were combined for 3 mice). N-Retinylamides were extracted in 4 mL hexane, concentrated, and reconstituted to a 300 μL volume for liver (200 μL for eye). Normal-phase HPLC (Agilent-Zorbax SIL; 5 μm; 4.5×250 mm; flow rate of 1.4 mL/min; 80:20 hexane:ethyl acetate (v:v); detection at 325 nm) was utilized to determine N-retinylamide concentration in these tissues.
Female C57BL mice (4-week-old) were randomly divided into seven groups, six treated groups and one control group. Free Ret-NH2 (3.5 μmol per mouse, dissolved in DMSO and dispersed in vegetable oil) or retinylamine derivative (Ret-Gly, Ret-L-Val-Gly, Ret-L-Phe, Ret-L-Leu, Ret-L-Val, 3.5 μmol per mouse, dissolved in DMSO and dispersed in vegetable oil) was administered by gastric gavage, control group was only gavaged vegetable oil. Then at each predetermined time point (2 and 16 h after drug administration), 3 mice were sacrificed. The liver and eye balls were collected to determine tissue drug content for pharmacokinetic analysis. A portion of the liver tissue (0.3-0.5 g) was weighed, homogenized in 2 mL 1:1 ethanol:PBS solution and the eye balls were similarly processed. Retinylamine or its derivative was extracted in 4 mL ethyl acetate, concentrated, and reconstituted to a 300 μL volume for liver (200 μL for eye). Reverse-phase HPLC (analytical C18 reverse column; 5 μm; 250 mm×4.6 mm; flow rate of 1.0 mL/min; 60:40 acetonitrile:H2O (v:v) with 0.05% trifluoroacetic acid; detection at 325 nm) was utilized to determine retinylamine or its derivative in these tissues. […]
No N-retinylamides were detected in the eye at 2 h for all treated mice. The concentration of N-retinylamides in the liver of all treated mice increased at 16 h post-treatment. […] The concentrations of the original drugs were also determined in the liver and eye at 2 h and 16 h (FIGS. 7C, D). All tested drugs, including Ret-NH2, were detected in liver and their concentrations decreased from 2 h to 16 h.

[3] = 3.5 μmol per mouse oral, C57BL mice, 16 h

Row | protection against light-induced retinal degeneration (ONL thickness from OCT) [1] | Structure (SMILES) | original drug detected in the eye ([2]; 3.5 μmol per mouse oral) | also measured
1 | little protecting efficacy | CC1=C(/C=C/C(C)=C/C=C/C(C)=C/CNC(=O)[C@H](C)N)C(C)(C)CCC1 [3a, (S)-2-amino-N-((2E,4E,6E,8E)-3,7-dimethyl-9-(2,6,6-trimethylcyclohex-1-en-1-yl)nona-2,4,6,8-tetraen-1-yl)propanamide] | – | –
2 | little protecting efficacy | CC[C@H](C)[C@H](N)C(=O)NC/C=C(C)/C=C/C=C(C)/C=C/C1=C(C)CCCC1(C)C [3c, (2S,3S)-2-amino-N-((2E,4E,6E,8E)-3,7-dimethyl-9-(2,6,6-trimethylcyclohex-1-en-1-yl)nona-2,4,6,8-tetraen-1-yl)-3-methylpentanamide] | – | –
3 | little protecting efficacy | CC1=C(/C=C/C(C)=C/C=C/C(C)=C/CNC(=O)[C@@H](C)N)C(C)(C)CCC1 [3f, (R)-2-amino-N-((2E,4E,6E,8E)-3,7-dimethyl-9-(2,6,6-trimethylcyclohex-1-en-1-yl)nona-2,4,6,8-tetraen-1-yl)propanamide] | – | –
4 | little protecting efficacy | CC1=C(/C=C/C(C)=C/C=C/C(C)=C/CNC(=O)[C@H](N)C(C)C)C(C)(C)CCC1 [3g, (R)-2-amino-N-((2E,4E,6E,8E)-3,7-dimethyl-9-(2,6,6-trimethylcyclohex-1-en-1-yl)nona-2,4,6,8-tetraen-1-yl)-3-methylbutanamide] | – | –
5 | little protecting efficacy | CC1=C(/C=C/C(C)=C/C=C/C(C)=C/CNC(=O)CCN)C(C)(C)CCC1 [3h, 3-amino-N-((2E,4E,6E,8E)-3,7-dimethyl-9-(2,6,6-trimethylcyclohex-1-en-1-yl)nona-2,4,6,8-tetraen-1-yl)propanamide] | – | –
6 | little protecting efficacy | CC1=C(/C=C/C(C)=C/C=C/C(C)=C/CNC(=O)[C@@H]2CCCN2)C(C)(C)CCC1 [3i, (S)—N-((2E,4E,6E,8E)-3,7-dimethyl-9-(2,6,6-trimethylcyclohex-1-en-1-yl)nona-2,4,6,8-tetraen-1-yl)pyrrolidine-2-carboxamide] | – | –
7 | low protecting effect | CC1=C(/C=C/C(C)=C/C=C/C(C)=C/CNC(=O)[C@@H](N)CC(C)C)C(C)(C)CCC1 [RL, (S)-2-amino-N-((2E,4E,6E,8E)-3,7-dimethyl-9-(2,6,6-trimethylcyclohex-1-en-1-yl)nona-2,4,6,8-tetraen-1-yl)-4-methylpentanamide] | only detected at 2 h | protection against light-induced retinal degeneration (ONL thickness from OCT) ([1]; listed as L-leucyl): little protecting efficacy; metabolism in the eye [2]: rapidly metabolized into inactive N-retinylamides in the eye
8 | relatively high protecting effect | CC1=C(/C=C/C(C)=C/C=C/C(C)=C/CNC(=O)[C@@H](N)C(C)C)C(C)(C)CCC1 [RV, (S)-2-amino-N-((2E,4E,6E,8E)-3,7-dimethyl-9-(2,6,6-trimethylcyclohex-1-en-1-yl)nona-2,4,6,8-tetraen-1-yl)-3-methylbutanamide] | detected in eyes at both 2 h and 16 h at a relatively high concentration | N-retinylamides in the eye [2, 3]: no detectable N-retinylamides in the eye; liver concentration of N-retinylamides [2, 3]: lower liver concentration of N-retinylamides than RF and RL; metabolism in the eye [2]: stable against metabolism and had prolonged presence in the eye as intact drug molecules

Row | Structure (SMILES) | protection against light-induced retinal degeneration (ONL thickness from OCT) [1] | original drug detected in the eye ([2]; 3.5 μmol per mouse oral) | also measured
9 | CC1=C(/C=C/C(C)=C/C=C/C(C)=C/CNC(=O)CN)C(C)(C)CCC1 [RG, 2-amino-N-((2E,4E,6E,8E)-3,7-dimethyl-9-(2,6,6-trimethylcyclohex-1-en-1-yl)nona-2,4,6,8-tetraen-1-yl)acetamide] | significant improvement on preventing light-induced retinopathy over retinyl amine; also recorded: relatively high protecting effect | detected in eyes at both 2 h and 16 h at a relatively high concentration | protection against light-induced retinal degeneration (ONL thickness from OCT) ([1]; listed as glycyl): significantly better protection than Ret-NH2 and other derivatives; liver concentration of N-retinylamides [2, 3]: lower liver concentration of N-retinylamides than RF and RL
10 | CC1=C(/C=C/C(C)=C/C=C/C(C)=C/CNC(=O)CNC(=O)[C@@H](N)C(C)C)C(C)(C)CCC1 [RGV, (S)-2-amino-N-(2-(((2E,4E,6E,8E)-3,7-dimethyl-9-(2,6,6-trimethylcyclohex-1-en-1-yl)nona-2,4,6,8-tetraen-1-yl)amino)-2-oxoethyl)-3-methylbutanamide] | significant improvement on preventing light-induced retinopathy over retinyl amine | – | –

From US10471118B2, “Retinylamine derivitives for treatment of ocular disorders” (CASE WESTERN RESERVE UNIVERSITY, priority 2014, dated 2019)
